Values after ≈ are worked out from the molar mass of the structure shown.
What was measured:
[1] = tested on: Mycobacterium tuberculosis; assay: Antimycobacterial activity against INH resistant Mycobacterium tuberculosis after 72 hrs by alamar blue dye-based broth dilution assay; format: functional
[2] = Resistant index, ratio of MIC for INH resistant Mycobacterium tuberculosis to MIC for Mycobacterium tuberculosis H37Rv; format: functional

SMILES | MIC [1] [µM] | Ratio [2]
Cc1cc2oc(=O)c(C(c3cccs3)c3c(O)c4cc(C)c(C)cc4oc3=O)c(C)c2cc1C (centres undefined) | 8.34 (≈ 3.94 µg/mL) | 1.6
O=c1oc2ccccc2cc1C(c1cccs1)c1c(O)c2ccccc2oc1=O (centres undefined) | 8.34 (≈ 3.36 µg/mL) | 1.6
